This is an account of results in paper PMC10282731, “Pyrrolo[2,3-e]indazole as a novel chemotype for both influenza A virus and pneumococcal neuraminidase inhibitors” (RSC Advances, 2023).

Converted amounts (≈) assume the structure as drawn. “And” between values parts separate entries of the source, which are not always exact repeats. Equal values may be shown once. Read-outs that look alike come from different tables or passages of the source. Marks after values point to notes of the source that are not given here. A value given as a limit tells only on which side of the number the result lay.

Data set [1] concerns S. pneumoniae DSM20566. The data set can be described thus: Biofilm formation inhibition assay (crystal violet). The data set is classed as cell-based, Streptococcus pneumoniae. The settings on record: S. pneumoniae DSM20566, 24 h, crystal violet, maximum 50 μM; read-out: IC50 Biofilm formation.
In data set [2] the test system is influenza A virus A/Jena/8178/09 (subtype A(H1N1)pdm09). Put plainly: Influenza A virus-induced CPE inhibition assay in MDCK cells (A/Jena/8178/09). The data set is classed as cell-based. The conditions noted are these: A(H1N1)pdm09, 48 h, maximum 100 µM, n.a. = not active, read-out: IC50 (IAV) Jena/8178.
The target in data set [3] is T1, neuraminidase NanA of S. pneumoniae strain DSM20566 (Streptococcus pneumoniae, UniProt P62575). The data set can be described thus: Lectin-based hemagglutination NA inhibition assay with pneumococcal neuraminidase. The data set is classed as biochemical. The conditions noted are these: ethanol-precipitated proteins of S. pneumoniae DSM20566, lectin-based hemagglutination assay.

The test system of data set [4] is neuraminidase of influenza A virus (IAV NA). The data set can be described thus: Human erythrocyte-based (hemagglutination-based) viral neuraminidase inhibition assay. The data set is classed as biochemical, influenza A virus A/Jena/8178/09. The conditions noted are these: human erythrocytes, 37 °C for 24 h, maximum 100 µM for test compounds.
The subject of a further data set is MDCK cells. The conditions noted are these: read-out: CC50 (MDCK), 72 h incubation, maximum 100 µM.
The subject of data set [5] is S. pneumoniae DSM20566. Put plainly: Planktonic growth inhibition, microtiter broth microdilution assay. The data set is classed as cell-based, Streptococcus pneumoniae. The conditions noted are these: S. pneumoniae DSM20566, 18 h, OD 620 nm, maximum 50 μM; read-out: IC50 Planktonic growth.
Data set [6] has as its system influenza A virus A/HK/1/68 (subtype H3N2). The data set can be described thus: Influenza A virus-induced CPE inhibition assay in MDCK cells (A/HK/1/68). The data set is classed as cell-based. The settings on record: H3N2, 48 h, maximum 100 µM, n.a. = not active, read-out: IC50 (IAV) HK/1/68.
A further data set addresses viral hemagglutinin (Influenza A virus, UniProt C3W5S1). The data set can be described thus: Human erythrocyte-based assay, inhibition of viral hemagglutinin-induced hemagglutination at 4 °C. The data set is classed as biochemical. The conditions noted are these: human erythrocytes, influenza A virus A/Jena/8178/09.
A short description of the next data set: in vitro. The conditions noted are these: dog.
The target in data set [7] is T1, neuraminidase NanA of S. pneumoniae strain DSM20566. The settings on record: Published; cited from earlier work.

T1 sequence (P62575 54-1035): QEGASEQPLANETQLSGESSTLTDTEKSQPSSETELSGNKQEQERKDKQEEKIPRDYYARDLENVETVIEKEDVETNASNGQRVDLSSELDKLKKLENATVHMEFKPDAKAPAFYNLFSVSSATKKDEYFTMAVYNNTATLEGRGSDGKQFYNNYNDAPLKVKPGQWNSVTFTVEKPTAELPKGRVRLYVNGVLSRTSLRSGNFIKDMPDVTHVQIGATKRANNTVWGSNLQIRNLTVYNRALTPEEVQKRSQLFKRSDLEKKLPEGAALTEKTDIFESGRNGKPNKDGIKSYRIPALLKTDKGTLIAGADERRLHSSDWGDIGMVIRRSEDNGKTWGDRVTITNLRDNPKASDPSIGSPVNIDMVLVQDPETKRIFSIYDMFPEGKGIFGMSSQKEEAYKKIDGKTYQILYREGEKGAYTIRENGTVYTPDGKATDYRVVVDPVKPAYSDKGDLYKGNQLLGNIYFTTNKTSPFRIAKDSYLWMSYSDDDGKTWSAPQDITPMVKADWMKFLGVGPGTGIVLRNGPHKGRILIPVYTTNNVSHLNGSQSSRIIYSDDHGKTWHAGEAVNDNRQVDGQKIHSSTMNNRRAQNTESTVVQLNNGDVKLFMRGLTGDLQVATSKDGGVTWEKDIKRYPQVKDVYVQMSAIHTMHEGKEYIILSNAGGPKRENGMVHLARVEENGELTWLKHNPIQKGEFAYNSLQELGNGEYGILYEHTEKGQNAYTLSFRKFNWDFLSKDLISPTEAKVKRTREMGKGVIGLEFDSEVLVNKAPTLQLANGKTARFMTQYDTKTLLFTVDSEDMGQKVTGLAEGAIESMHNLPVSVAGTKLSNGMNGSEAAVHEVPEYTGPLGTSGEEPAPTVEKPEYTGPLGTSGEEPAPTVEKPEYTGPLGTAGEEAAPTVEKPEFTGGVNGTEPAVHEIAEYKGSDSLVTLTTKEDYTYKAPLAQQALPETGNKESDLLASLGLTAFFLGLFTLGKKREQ
viral hemagglutinin, sequence (C3W5S1 18-344 limits assumed): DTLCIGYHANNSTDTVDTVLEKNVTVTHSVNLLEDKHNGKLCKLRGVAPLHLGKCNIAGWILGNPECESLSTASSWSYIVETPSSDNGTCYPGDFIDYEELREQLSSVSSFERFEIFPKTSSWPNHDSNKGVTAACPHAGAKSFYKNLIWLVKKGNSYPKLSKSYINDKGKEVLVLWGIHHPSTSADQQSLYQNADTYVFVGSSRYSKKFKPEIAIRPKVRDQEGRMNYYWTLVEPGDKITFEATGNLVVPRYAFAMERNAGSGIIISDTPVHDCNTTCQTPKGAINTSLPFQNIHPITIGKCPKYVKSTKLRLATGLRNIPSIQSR
viral hemagglutinin, sequence (C3W5S1 345-566 limits assumed): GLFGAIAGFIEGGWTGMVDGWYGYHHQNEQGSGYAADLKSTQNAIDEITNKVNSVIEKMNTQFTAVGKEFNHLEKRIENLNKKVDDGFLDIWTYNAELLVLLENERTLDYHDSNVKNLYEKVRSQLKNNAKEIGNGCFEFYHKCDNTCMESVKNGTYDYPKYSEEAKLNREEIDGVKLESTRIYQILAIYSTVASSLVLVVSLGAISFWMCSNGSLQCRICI

For “5-Hydroxy-3-ethoxycarbonyl-2-methyl-6-phenyl-8-[4-(trifluoromethyl)phenyl]-pyrrolo[2,3-e]indazole [Compound 6h]”, the IC50 with S. pneumoniae DSM20566 [1] amounted to 40.1 µM; in [2], 24.8 µM; in the data set with S. pneumoniae DSM20566 [5], 50 µM; in data set [6], 30.5 µM. In addition, the “MIC S.p. NanA (minimum neuraminidase inhibitory concentration)” value in data set [3] was 10.0 µM and 10.00 µM. The “MIC IAV NA (minimum neuraminidase inhibitory concentration)” value in [4] came out at 24.40 µM. In the data set on MDCK cells, the CC50 is greater than 100 µM.

As to `CCOC(=O)c1c(C)[nH]c2c1cc(OC(C)=O)c1c2c(-c2ccc(N)cc2)nn1-c1ccccc1` [Compound 13], the results for the IC50 in data set [2] (Influenza A virus) and in data set [6] (Influenza A virus) were 14.1 µM and 9.39 µM, respectively. Also, the “MIC IAV NA (minimum neuraminidase inhibitory concentration)” value in data set [4] amounted to 14.20 µM (≈ 6.65 µg/mL). The “Inhibition of hemagglutination (concentration)” value on viral hemagglutinin is 31.6 µM. The CC50 at 72 h in “in vitro” is greater than 100 µM.

With `CCOC(=O)C1=C[C@@H](OC(CC)CC)[C@H](NC(C)=O)[C@@H](N)C1` [Oseltamivir, oseltamivir, reference compound], the IC50 stood at 0.14 µM in data set [2] and 0.004 µM in data set [6]. Further, the “MIC IAV NA (minimum neuraminidase inhibitory concentration)” value in [4] was found to be 1.97 µM (≈ 0.615 µg/mL). Besides, the “MIC S.p. NanA (minimum neuraminidase inhibitory concentration)” value in [7] is listed as 2.08 ^a μM.
